target: EGFR (UniProt P00533)
Sequence (P00533 whole entry, looked up): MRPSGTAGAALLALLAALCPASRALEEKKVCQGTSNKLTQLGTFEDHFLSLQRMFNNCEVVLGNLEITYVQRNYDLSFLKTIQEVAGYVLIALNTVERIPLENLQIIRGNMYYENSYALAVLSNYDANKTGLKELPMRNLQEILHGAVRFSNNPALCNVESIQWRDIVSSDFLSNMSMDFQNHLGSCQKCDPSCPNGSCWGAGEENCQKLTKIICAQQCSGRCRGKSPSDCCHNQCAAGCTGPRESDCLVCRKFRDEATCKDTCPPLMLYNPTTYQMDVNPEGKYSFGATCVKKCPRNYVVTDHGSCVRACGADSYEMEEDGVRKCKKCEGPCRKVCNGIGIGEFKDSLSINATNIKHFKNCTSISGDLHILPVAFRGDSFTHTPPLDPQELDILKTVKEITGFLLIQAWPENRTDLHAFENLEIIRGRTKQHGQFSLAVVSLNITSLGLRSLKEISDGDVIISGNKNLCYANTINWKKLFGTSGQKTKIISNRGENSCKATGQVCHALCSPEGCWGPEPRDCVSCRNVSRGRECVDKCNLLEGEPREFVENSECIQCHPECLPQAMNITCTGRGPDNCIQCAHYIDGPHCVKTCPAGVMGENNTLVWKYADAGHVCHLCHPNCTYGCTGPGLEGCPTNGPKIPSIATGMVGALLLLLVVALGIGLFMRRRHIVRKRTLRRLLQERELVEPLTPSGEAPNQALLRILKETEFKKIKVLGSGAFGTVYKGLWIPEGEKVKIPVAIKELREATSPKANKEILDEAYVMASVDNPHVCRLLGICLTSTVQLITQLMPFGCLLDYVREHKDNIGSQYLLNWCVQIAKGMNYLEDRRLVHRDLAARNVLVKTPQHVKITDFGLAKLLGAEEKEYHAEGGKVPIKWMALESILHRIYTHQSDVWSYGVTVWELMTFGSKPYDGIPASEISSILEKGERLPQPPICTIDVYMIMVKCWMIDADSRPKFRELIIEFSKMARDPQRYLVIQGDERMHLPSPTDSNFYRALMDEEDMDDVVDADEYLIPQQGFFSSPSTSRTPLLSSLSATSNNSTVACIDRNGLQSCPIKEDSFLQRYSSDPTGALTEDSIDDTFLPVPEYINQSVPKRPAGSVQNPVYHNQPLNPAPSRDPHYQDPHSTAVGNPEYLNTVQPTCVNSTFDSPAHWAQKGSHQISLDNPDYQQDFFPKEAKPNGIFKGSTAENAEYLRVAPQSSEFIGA

Row | IC50 [nM] | Structure (SMILES)
1 | 1 to 5000 | CCc1c(NC(=O)OC[C@@H]2COCCN2)cn2ncnc(Nc3ccc4c(cnn4Cc4cnccn4)c3)c12
2 | 1 to 5000 | Cc1c(NC(=O)OC[C@@H]2COCCN2)cn2ncnc(Nc3ccc4c(cnn4Cc4cccc(F)c4)c3)c12
3 | 1 to 5000 | CCc1c(NC(=O)OC[C@@H]2CCCN2)cn2ncnc(Nc3ccc4c(cnn4Cc4ccccc4)c3)c12
4 | 1 to 5000 | CCc1c(NC(=O)OC2CCN[C@H](CO)C2)cn2ncnc(Nc3ccc4c(cnn4Cc4ccccc4)c3)c12 (stereo not given in full)
5 | 1 to 5000 | CCc1c(NC(=O)O[C@H]2CC[C@@](C)(N)CC2)cn2ncnc(Nc3ccc4c(cnn4Cc4ccccc4)c3)c12
6 | 1 to 5000 | CCc1c(NC(=O)O[C@H]2CC[C@@H](N)CC2)cn2ncnc(Nc3ccc4c(cnn4Cc4ccccc4)c3)c12
7 | 1 to 5000 | CCc1c(NC(=O)OC[C@@H]2COCCN2)cn2ncnc(Nc3ccc4c(cnn4Cc4ccccn4)c3)c12
8 | 1 to 5000 | Cc1c(NC(=O)O[C@H]2CCN[C@H](CO)C2)cn2ncnc(Nc3ccc4c(cnn4Cc4cccc(F)c4)c3)c12
9 | 1 to 5000 | CCc1c(NC(=O)OC[C@@H]2CCCN2C)cn2ncnc(Nc3ccc4c(cnn4Cc4ccccc4)c3)c12
10 | 1 to 5000 | CCc1c(NC(=O)OC[C@H]2CCCN2)cn2ncnc(Nc3ccc4c(cnn4Cc4ccccc4)c3)c12
11 | 1 to 5000 | CCc1c(NC(=O)OC[C@H]2C[C@H](O)CCN2)cn2ncnc(Nc3ccc4c(cnn4Cc4ccccc4)c3)c12
12 | 1 to 5000 | Cc1c(NC(=O)O[C@H]2CC[C@H](N)CC2)cn2ncnc(Nc3ccc4c(cnn4Cc4cccc(F)c4)c3)c12
13 | 1 to 5000 | Cc1c(NC(=O)O[C@H]2CC[C@@H](N)CC2)cn2ncnc(Nc3ccc4c(cnn4Cc4cccc(F)c4)c3)c12
14 | 1 to 5000 | CCc1c(NC(=O)OCCCN2CCC[C@H](O)C2)cn2ncnc(Nc3ccc4c(cnn4Cc4ccccc4)c3)c12
15 | 1 to 5000 | CCc1c(NC(=O)OC[C@@H]2CCNC2)cn2ncnc(Nc3ccc4c(cnn4Cc4ccccc4)c3)c12
16 | 1 to 5000 | CCc1c(NC(=O)OCCCN2CC[C@@H](O)C2)cn2ncnc(Nc3ccc4c(cnn4Cc4ccccc4)c3)c12
17 | 1 to 5000 | CCc1c(NC(=O)OC[C@H]2CCNC2)cn2ncnc(Nc3ccc4c(cnn4Cc4ccccc4)c3)c12
18 | 1 to 5000 | Cc1c(NC(=O)O[C@@H]2CCN[C@@H](CO)C2)cn2ncnc(Nc3ccc4c(cnn4Cc4cccc(F)c4)c3)c12
19 | 1 to 5000 | CCc1c(NC(=O)OC[C@@H]2COCCN2)cn2ncnc(Nc3ccc4c(cnn4Cc4cscn4)c3)c12
20 | 1 to 5000 | Cc1c(NC(=O)OC[C@H]2COCCN2)cn2ncnc(Nc3ccc4c(cnn4Cc4cccc(F)c4)c3)c12
21 | 1 to 5000 | CCc1c(NC(=O)OC[C@@H]2COCCN2)cn2ncnc(Nc3ccc4c(cnn4Cc4cccs4)c3)c12
22 | 1 to 5000 | Cc1c(NC(=O)OC[C@H](C)N)cn2ncnc(Nc3ccc4c(cnn4Cc4cccc(F)c4)c3)c12
23 | 1 to 5000 | CCc1c(NC(=O)O[C@H]2CCCNC2)cn2ncnc(Nc3ccc4c(cnn4Cc4ccccc4)c3)c12

Row | IC50 [nM] | Structure (SMILES)
24 | 1 to 5000 | CCc1c(NC(=O)OC[C@@H]2CNCCO2)cn2ncnc(Nc3ccc4c(cnn4Cc4ccccc4)c3)c12
25 | 1 to 5000 | Cc1c(NC(=O)O[C@H]2CCCNC2)cn2ncnc(Nc3ccc4c(cnn4Cc4cccc(F)c4)c3)c12
26 | 1 to 5000 | CCc1c(NC(=O)O[C@@H]2CCN[C@@H](CO)C2)cn2ncnc(Nc3ccc4c(cnn4Cc4ccccc4)c3)c12
27 | 1 to 5000 | CCc1c(NC(=O)O[C@H]2CC[C@H](CN)CC2)cn2ncnc(Nc3ccc4c(cnn4Cc4ccccc4)c3)c12
28 | 1 to 5000 | CCc1c(NC(=O)OC[C@@H]2COCCN2)cn2ncnc(Nc3ccc4c(cnn4Cc4ccsc4)c3)c12
29 | 1 to 5000 | CCc1c(NC(=O)O[C@H]2CC[C@@H](CN)CC2)cn2ncnc(Nc3ccc4c(cnn4Cc4ccccc4)c3)c12
30 | 1 to 5000 | CCc1c(NC(=O)O[C@@H]2CCCNC2)cn2ncnc(Nc3ccc4c(cnn4Cc4ccccc4)c3)c12
31 | 1 to 5000 | CCc1c(NC(=O)OC[C@H]2CNCCO2)cn2ncnc(Nc3ccc4c(cnn4Cc4ccccc4)c3)c12
32 | 1 to 5000 | Cc1c(NC(=O)OC[C@@H]2COCCN2C(=O)OC(C)(C)C)cn2ncnc(Nc3ccc4c(cnn4Cc4cccc(F)c4)c3)c12
33 | 1 to 5000 | CCc1c(NC(=O)OC[C@@H]2COCCN2)cn2ncnc(Nc3ccc4c(cnn4Cc4nccs4)c3)c12
34 | 1 to 5000 | CCc1c(NC(=O)OC[C@@H]2COCCN2)cn2ncnc(Nc3ccc4c(cnn4Cc4ccccc4)c3)c12
35 | 1 to 5000 | CCc1c(NC(=O)OC[C@@H]2COCCN2)cn2ncnc(Nc3ccc4c(cnn4Cc4cccnc4)c3)c12
36 | 1 to 5000 | CCc1c(NC(=O)O[C@H]2CC[C@H](N)CC2)cn2ncnc(Nc3ccc4c(cnn4Cc4ccccc4)c3)c12
37 | 1 to 5000 | Cc1c(NC(=O)O[C@@H]2CCCNC2)cn2ncnc(Nc3ccc4c(cnn4Cc4cccc(F)c4)c3)c12
38 | 1 to 5000 | Cc1c(NC(=O)OCC2COCCN2)cn2ncnc(Nc3ccc4c(cnn4Cc4cccc(F)c4)c3)c12 (stereo not given)
39 | 1 to 5000 | CCc1c(NC(=O)OC[C@@H]2CCN(C)C2)cn2ncnc(Nc3ccc4c(cnn4Cc4ccccc4)c3)c12
40 | 1 to 5000 | CCc1c(NC(=O)OC[C@@H]2COCCN2)cn2ncnc(Nc3ccc4c(cnn4Cc4ncco4)c3)c12
41 | 1 to 5000 | CCc1c(NC(=O)OCCCN2CC[C@H](O)C2)cn2ncnc(Nc3ccc4c(cnn4Cc4ccccc4)c3)c12
42 | 1 to 5000 | CCc1c(NC(=O)OC[C@@H]2COCCN2)cn2ncnc(Nc3ccc4c(cnn4Cc4cccc(F)c4)c3)c12
43 | 1 to 5000 | Cc1c(NC(=O)O[C@H]2CC[C@@](C)(N)CC2)cn2ncnc(Nc3ccc4c(cnn4Cc4cccc(F)c4)c3)c12
44 | 1 to 5000 | CCc1c(NC(=O)OC[C@H]2COCCN2)cn2ncnc(Nc3ccc4c(cnn4Cc4ccccc4)c3)c12
45 | 1 to 5000 | Cc1c(NC(=O)OC[C@@H](C)N)cn2ncnc(Nc3ccc4c(cnn4Cc4cccc(F)c4)c3)c12
